Experiments:
Type in all cases: physicochemical
[1] = In vitro release profile in plant oil from antiparasitic TPU (EPAMOULD) collar; details: for release profile: bi-injected collar: one matrix 8% permethrin in 5% SANTICIZER 141, other matrix 4% deltamethrin in 22% SANTICIZER 141; for amount released after 15 days: single EPAMOULD matrix with 8% permethrin and 4% deltamethrin, both in 22% SANTICIZER 141
Description: 8% permethrin is solubilized in 22% of SANTICIZER 141® Then, 4% deltamethrin is added, before adding the homogeneous mixture in a single EPAMOULD® matrix.
FIG. 3: In vitro release profile in the plant oil from the pest control collar containing 8% permethrin and 4% deltamethrin, both solubilized in 22% SANTICIZER 141®
Therefore, the same amount (8%) of permethrin was solubilized in 5% SANTICIZER® 141 prior to incorporation into a EPAMOULD® matrix as above, in order to obtain a permethrin compound. In parallel, the same quantity of deltamethrin (4%) solubilized in 22% of SANTICIZER® 141 was mixed, prior to incorporation into a EPAMOULD® matrix, in order to obtain a deltamethrin compound.
The two compounds obtained are injected simultaneously in a collar using the bi-injection press as described in Example 1.
FIG. 4: In vitro release profile in plant oil of the antiparasitic collar obtained by bi-injection including a matrix containing 8% of permethrin solubilized in 5% of SANTICIZER 141® and the other matrix containing 4% of deltamethrin dissolved in 22% of SANTICIZER 141®.

[2] = GPC assay of active ingredients (repellent tracers) in EVA collars at T0 after injection and after 7 days of stability at 50° C.; details: for cumulative loss: collar (C1), T0 loss plus loss after 7 days at 50° C.; for Active ingredient loss (%): EVA
Description: In a 1 L beaker, 200 g of vitamin F, 160 g of Mentha pulegium essential oil, 31.2 g of eucalyptus essential oil, 8 g of lemongrass essential oil and 0.8 g of geraniol are mixed. The mixture is stirred lightly until a homogeneous liquid mixture is obtained.
3519.2 g of EVA are introduced into a cylindrical mixer preheated to 70° C. Then, the above homogeneous liquid mixture is slowly introduced. The mixture is left to be stirred gently until dry granules are obtained. 80 g of pistachio green dye are added and then mixed for 5 minutes. A compound is obtained consisting of EVA polymers loaded with 11.1% by weight of all the active ingredients combined, or 5.5% by weight of vitamin F and 5.6% by weight of repellents.
The above compound is injected into a collar 60 cm long by 1 cm wide and weighing 25 g.
The collars (C1) thus obtained were analyzed by GPC assay of the active ingredients contained in the matrix at time zero (T0) after injection, then after 7 days of stability at 50° C. in watertight-sealed packaging.
In parallel, by proceeding according to the same protocol, vitamin F was replaced by coconut oil, in the same proportions, then the corresponding collar compound (C2) was injected. The analyses by GPC assay of the collars (C2) gave the results recorded in Table 2. […]

[3] = Release profile at room temperature of active ingredient incorporated at 10% into polymer matrix bracelets; details: for release profile: 10% loading
Description: Studies carried out by the inventors have made it possible to prepare the release profiles of limonene as a function of the polymers used, namely PEBA, EVA and the bio-based polyethylene (PE) copolymer. Compounds loaded with 10% limonene were injected in a bracelet.
FIG. 1: release profile at room temperature of limonene incorporated at 10% into different polymer matrices.
10% essential oil of Eucalyptus radiata has been incorporated into an EVA polymer matrix.
FIG. 2: release profile at room temperature of Eucalyptus radiata essential oil incorporated at 10% into an EVA matrix

[4] = collars (C1), 5.5% Vitamin F and 5.6% repellents, at T0 after injection
[5] = collars (C1), 5.5% Vitamin F and 5.6% repellents, at T = 7 days at 50° C., watertight-sealed packaging
[6] = collars (C2), 5.5% coconut and 5.6% repellents, at T0 after injection
[7] = collars (C2), 5.5% coconut and 5.6% repellents, at T = 7 days at 50° C.
[8] = PEBA bracelet loaded with 10% limonene

SMILES | cumulative loss [2] | Active ingredient loss (%) [2, 4] | Active ingredient loss (%) [2, 5] | Active ingredient loss (%) [2, 6] | Active ingredient loss (%) [2, 7] | other results
CC1(C)C(C=C(Cl)Cl)C1C(=O)OCc1cccc(Oc2ccccc2)c1 (centres unmarked) [permethrin] |  |  |  |  |  | release profile [1]: substantially similar release profile; amount released after 15 days [1]: 52%
CC1(C)[C@H](C(=O)O[C@H](C#N)c2cccc(Oc3ccccc3)c2)[C@@H]1C=C(Br)Br [deltamethrin] |  |  |  |  |  | release profile [1]: substantially similar release profile; amount released after 15 days [1]: 18%
CC(C)=CCCC(C)CC=O (centres unmarked) [Citronellal] | 50% | 12% | 38% | 0% | 3% | Active ingredient loss (%) ([2]; collars (C1), 5.5% Vitamin F and 5.6% repellents, at T0 after injection, listed as citronellal): 12%; Active ingredient loss (%) ([2]; collars (C1), 5.5% Vitamin F and 5.6% repellents, at T = 7 days at 50° C., watertight-sealed packaging, listed as citronellal): 38%; Active ingredient loss (%) ([2]; collars (C2), 5.5% coconut and 5.6% repellents, at T = 7 days at 50° C., listed as citronellal): 3%
CC(C)=CCCC(C)CCO (centres unmarked) [Citronellol] | 27% | 7% | 20% | 3% | 0% | Active ingredient loss (%) ([2]; collars (C1), 5.5% Vitamin F and 5.6% repellents, at T0 after injection, listed as citronellol): 7%; Active ingredient loss (%) ([2]; collars (C1), 5.5% Vitamin F and 5.6% repellents, at T = 7 days at 50° C., watertight-sealed packaging, listed as citronellol): 20%; Active ingredient loss (%) ([2]; collars (C2), 5.5% coconut and 5.6% repellents, at T0 after injection, listed as citronellol): 3%
C=C(C)[C@H]1CC=C(C)CC1 [limonene, Limonene] |  |  |  |  |  | release profile ([3]; EVA matrix): releases gradually; amount released after 2 days [3, 8]: 70%; time until bracelet empty [3, 8]: 6 days; release profile ([3]; PEBA bracelet): very quickly and in a significant quantity; release profile ([3]; bio-based polyethylene (PE) copolymer bracelet): retains; remaining amount after 10 days ([3]; incorporated at 10% into EVA matrix): 42%
CC(C)=C1CC[C@@H](C)CC1=O [Pulegone] |  | 11% | 10% | 0% | 0% | 
CC12CCC(CC1)C(C)(C)O2 [Cineole] | 16% | 12% | 4% | 0% | 0% | Active ingredient loss (%) ([2]; collars (C1), 5.5% Vitamin F and 5.6% repellents, at T0 after injection, listed as cineole): 12%; Active ingredient loss (%) ([2]; collars (C1), 5.5% Vitamin F and 5.6% repellents, at T = 7 days at 50° C., watertight-sealed packaging, listed as cineole): 4%
CC(C)=CCC/C(C)=C/CO [Geraniol, geraniol] | 36% | 6% | 30% | 0% | 0% | Active ingredient loss (%) ([2]; collars (C1), 5.5% Vitamin F and 5.6% repellents, at T0 after injection, listed as geraniol): 6%; Active ingredient loss (%) ([2]; collars (C1), 5.5% Vitamin F and 5.6% repellents, at T = 7 days at 50° C., watertight-sealed packaging, listed as geraniol): 30%
